Data: patent US20250049932A1, “CYTOTOXICITY TARGETING CHIMERAS FOR FOLATE RECEPTOR-EXPRESSING CELLS” (GLAXOSMITHKLINE INTELLECTUAL PROPERTY DEVELOPMENT LIMITED, priority 2022, published 2025)
Where “and” joins values, the source holds several entries; their conditions need not be identical. Equal entries are not always repeated.

Biological target: T1, FOLR (Homo sapiens, UniProt P15328)
T1 construct: Target cells: IGROV1 cells (typically 1000-20,000 cells per well); endogenous in cells; host or cells: IGROV1 cells
Assay: Antibody dependent cellular cytotoxicity (ADCC) reporter assay
Type: cell-based
Details: IGROV1 target cells; anti-cotinine antibody (SEQ ID NO: 11/12, human IgG1 Fc S239D/I332E); Jurkat FcγRIIIa NFAT-luciferase reporter cells; about 12-18 hours; one value per experimental run; EC50 in molar (M); footnote: pEC50 < 5 = inactive
Method: An antibody dependent cellular cytotoxicity (ADCC) reporter assay was conducted using the following four assay components: (i) ARM compound of Formula (I) targeting FOLR (concentrations ranging from 1 pM to 10 μM); (ii) anti-cotinine antibody having a heavy chain sequence of SEQ ID NO: 11 and a light chain sequence of SEQ ID NO: 12 (rabbit variable region with human IgG1 Fc domain containing DE mutation (S239D/I332E)) (concentrations ranging from 0.01 μg/mL-200 μg/mL); (iii) Target cells: IGROV1 cells (typically 1000-20,000 cells per well); and (iv) Reporter cells—Jurkat cells engineered to express FcγRIIIa with a reporter gene luciferase under the control of the NFAT promoter (typically 3000-75,000 cells per well). Reagents were combined in final volume of 20 μL in 384-well tissue culture treated plate. […]
Luminescence signal was measured on a microplate reader capable of measuring luminescence and signal: background was calculated by dividing the signal of a test well by the signal obtained when no compound of formula (I) was included in the assay. […]
ARMs compounds of Formula (I) were tested for ADCC activity in the above assay in one or more experimental runs and the results are shown in Table 3 below. […] The pEC50 value is the negative log of the EC50 value, wherein the EC50 value is half maximal effective concentration measured in molar (M). […]

T1 sequence (P15328 25-234 limits assumed): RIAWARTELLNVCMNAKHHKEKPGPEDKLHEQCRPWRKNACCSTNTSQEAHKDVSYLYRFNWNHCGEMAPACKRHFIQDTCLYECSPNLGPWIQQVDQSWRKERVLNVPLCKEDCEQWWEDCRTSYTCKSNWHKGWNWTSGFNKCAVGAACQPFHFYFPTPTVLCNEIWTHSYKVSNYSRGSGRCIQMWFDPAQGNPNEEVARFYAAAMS

| Compound | EC50 | ADCC Reporter Assay pEC50 |
| --- | --- | --- |
| CN1C(=O)C[C@H](C(=O)NCCO[C@H]2CC[C@H](OCCCC(=O)N[C@H]3CC[C@H](C(=O)NCCNC(=O)CC[C@H](NC(=O)c4ccc(NCc5cnc6nc(N)[nH]c(=O)c6n5)cc4)C(=O)O)CC3)CC2)[C@H]1c1cccnc1 (racemic) [Example 2, N2-(4-(((2-Amino-4-oxo-3,4-dihydropteridin-6-yl)methyl)amino)benzoyl)-N5-(2-((1R,4S)-4-(4-(((1S,4R)-4-(2-((2S,3S)-1-methyl-5-oxo-2-(pyridin-3-yl)pyrrolidine-3-carboxamido)-ethoxy)cyclohexyl)oxy)butanamido)cyclohexane-1-carboxamido)ethyl)-L-glutamine] | 6.31e-08 M and 7.94e-08 M |  |
| CN1C(=O)C[C@H](C(=O)NCCNC(=O)CC[C@H](NC(=O)c2ccc(NCc3cnc4nc(N)[nH]c(=O)c4n3)cc2)C(=O)O)[C@H]1c1cccnc1 [Example 1, N2-(4-(((2-Amino-4-oxo-3,4-dihydropteridin-6-yl)methyl)amino)benzoyl)-N5-(2-((2S,3S)-1-methyl-5-oxo-2-(pyridin-3-yl)pyrrolidine-3-carboxamido)ethyl)-L-glutamine] |  | 4.5 and 4.8 |
